Data reported in patent USRE42890E1, “Furazanobenzimidazoles” (Basilea Pharmaceutica AG, priority 2003, dated 2011).

What was measured:
Jurkat [1] = test: PI staining for cell cycle distribution, Jurkat; assay type: cell-based, human; design: key: 0: no effect; 1: weak effect; 2: strong effect; conditions: Jurkat 3 μM, 24 h; for PI staining for cell cycle distribution, G2M: cell population arrested in G2M phase; for PI staining for cell cycle distribution, subG1: subG1 peak indicative for DNA fragmentation
Protocol: (§1) Cell lines are cultured in RPMI-1640 tissue culture medium containing either 5% or 10% fetal calf serum, 0.05 mM 2-mercaptoethanol, 2 mM glutamine and penicillin/streptomycin 50 μg/ml (complete medium) (Sigma, Buchs, Switzerland). General growth conditions are 37° C. and 7.5% CO2.
(§2) The following human cell lines (either EGFP transfected or not) are being used: HeLa (ATCC: CCL-2), KB (ATCC: CCL-17), MCF7 (ATCC: HTB-22), SK-BR-3 (ATCC: HTB-30), SK-Mel 1 (ATCC: HTB-67), SK-Mel 28 (ATCC: HTB-72), PC-3 (ATCC: CRL-1435), SW 480 (ATCC: CCL-228), NCl-H460 (ATCC: HTB-177), NCl-H1792 (ATCC: CRL-5895), HT1080 (ATCC: CCL-21), Jurkat (ATCC: TIB-152), Ramos (ATCC: CRL-1596), Raji (ATCC: CCL-86), H9 (ATCC: HTB-176), Hut78 (ATCC: TIB-161), K562 (ATCC: CCL 243), HL-60 (ATCC: CCL 240), U-87MG (ATCC: HTB-14), HepG2 (ATCC: HB-8065), U-2 OS (ATCC: HTB-96), Saos-2 (ATCC: HTB-85), U937 (ATCC: CRL 1593), Hs 578T (ATCC: HTB 126), HBL-100 (ATCC: HTB 124), Molt-4 (ATCC: CRL 1582).
(§3) 1-2*10^5 cells are seeded into 24 well tissue culture plates and incubated for 24 h prior to compound addition. Compounds are added for 24 h in a final concentration of 3 μM or 10 μM. Adherent cells are harvested by trypsinization. The cell suspensions are fixed by adding 2 parts ice cold ethanol 100% while vortexing. Then the samples are stored for >2 h at −20° C. Subsequently the cells are washed with PBS once and resuspended in 250 μl PBS containing 50 μg/ml PI (Calbiochem # 537059), then the samples are incubated at 37° C. for 30 minutes and subsequently analyzed on a FACSCalibur™ monitoring linear PI fluorescence activity on FL2. The readout allows the detection of a possible direct or indirect influence of the tested compounds on the cell cycle. The following events can occur: a) Generation of a subG1 peak indicative for DNA fragmentation, b) increase of the cell population arrested in G2M phase. Both events are scored by 1 for weak and 2 for strong occurrence. 0 indicates no occurrence at all.

HT1080 = test: MTS proliferation assay, HT1080; assay type: cell-based, human; conditions: HT1080, 72 h incubation; read-out: MTS proliferation assay IC 50 HT1080
Summary of the method: (§4)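 Absorbance at 492 nm after 3 h with MTS reagent gave proliferation. This followed 72 h compound exposure (final 0.3, 1, 3, 10 μM) at 37 °C and 7.5% CO2. Cells had been plated 24 h earlier in complete RPMI-1640 with 5% or 10% FCS.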

MRC5 = test: MTS proliferation assay, MRC5; assay type: cell-based; conditions: MRC5, 72 h incubation; read-out: MTS proliferation assay IC 50 MRC5
Summary of the method: (§5)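 Antiproliferative read-out by MTS (3 h, A492) after 72 h compound exposure at final 0.3–10 μM (four concentrations). Cells were plated 24 h earlier in RPMI-1640 containing 5% or 10% FCS, cultured at 37 °C with 7.5% CO2.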

Jily = test: MTS proliferation assay, Jily; assay type: cell-based; conditions: 72 h incubation, read-out: MTS proliferation assay IC 50 Jily
Summary of the method: as §5

HeLa [2] = test: MTS proliferation assay, HeLa; assay type: cell-based, human; conditions: 72 h incubation, read-out: MTS proliferation assay IC 50 HeLa
Summary of the method: as §4

Jurkat [3] = test: MTS proliferation assay, Jurkat; assay type: cell-based, human; conditions: 72 h incubation, read-out: MTS proliferation assay IC 50 Jurkat
Summary of the method: as §4

HeLa [4] = test: PI staining for cell cycle distribution, HeLa; assay type: cell-based, human; design: key: 0: no effect; 1: weak effect; 2: strong effect; conditions: HeLa 10 μM, 24 h; for PI staining for cell cycle distribution, G2M: cell population arrested in G2M phase; for PI staining for cell cycle distribution, subG1: subG1 peak indicative for DNA fragmentation
Protocol: as §1, §2, §3

[5] = test system: adherent cells or suspension cells; test: Hoechst 33342 nuclear staining (fraction of apoptotic nuclei); assay type: cell-based; design: key: 0 relating to no activity; 1 relating to weak activity comprising less than 70% of the cells; score 2 relating to strong activity comprising more than 70% of the cells

SMILES	PI staining for cell cycle distribution, G2M (Jurkat [1])	PI staining for cell cycle distribution, subG1 (Jurkat [1])	IC50 (MRC5)	IC50 (HeLa [2])	IC50 (Jurkat [3])	PI staining for cell cycle distribution, G2M (HeLa [4])	PI staining for cell cycle distribution, subG1 (HeLa [4])	Hoechst 33342 nuclear staining score ([5]; H460, conc 0.01 μm)	Hoechst 33342 nuclear staining score ([5]; H460, conc 0.1 μm)	Hoechst 33342 nuclear staining score ([5]; H460, conc 1 μm)	Hoechst 33342 nuclear staining score ([5]; HeLa, conc 0.01 μm)	Hoechst 33342 nuclear staining score ([5]; HeLa, conc 0.1 μm)	Hoechst 33342 nuclear staining score ([5]; HeLa, conc 1 μm)	Hoechst 33342 nuclear staining score ([5]; Jily, conc 0.01 μm)	Hoechst 33342 nuclear staining score ([5]; Jily, conc 0.1 μm)	Hoechst 33342 nuclear staining score ([5]; Jily, conc 1 μm)	Hoechst 33342 nuclear staining score ([5]; Jurkat, conc 0.01 μm)	Hoechst 33342 nuclear staining score ([5]; Jurkat, conc 0.1 μm)	Hoechst 33342 nuclear staining score ([5]; Jurkat, conc 1 μm)	Hoechst 33342 nuclear staining score ([5]; MRC5, conc 0.01 μm)	further results
N#CCCNc1nonc1-c1nc2ccccc2n1CC(=O)c1ccc(N)cc1 [Example 58]	0	0	< 10 nM	10 to 100 nM	< 10 nM	2	0	2 (score 2 relating to strong activity comprising more than 70% of the cells)	2 (score 2 relating to strong activity comprising more than 70% of the cells)	2 (score 2 relating to strong activity comprising more than 70% of the cells)	2 (score 2 relating to strong activity comprising more than 70% of the cells)	2 (score 2 relating to strong activity comprising more than 70% of the cells)	2 (score 2 relating to strong activity comprising more than 70% of the cells)	2 (score 2 relating to strong activity comprising more than 70% of the cells)	2 (score 2 relating to strong activity comprising more than 70% of the cells)	2 (score 2 relating to strong activity comprising more than 70% of the cells)	2 (score 2 relating to strong activity comprising more than 70% of the cells)	2 (score 2 relating to strong activity comprising more than 70% of the cells)	2 (score 2 relating to strong activity comprising more than 70% of the cells)	1 (1 relating to weak activity comprising less than 70% of the cells)	IC50 (HT1080): < 10 nM; IC50 (Jily): < 10 nM; Hoechst 33342 nuclear staining score ([5]; MRC5, conc 0.1 μm): 2 (score 2 relating to strong activity comprising more than 70% of the cells); Hoechst 33342 nuclear staining score ([5]; MRC5, conc 1 μm): 2 (score 2 relating to strong activity comprising more than 70% of the cells); Hoechst 33342 nuclear staining score ([5]; PBLs, conc 0.01 μm): 0; Hoechst 33342 nuclear staining score ([5]; PBLs, conc 0.1 μm): 0; Hoechst 33342 nuclear staining score ([5]; PBLs, conc 1 μm): 0
Nc1nonc1-c1nc2ccccc2n1CC(=O)c1ccc(Br)cc1 [Example 29]	0	0	10 to 100 nM	10 to 100 nM	10 to 100 nM	2	0	0	0	2 (score 2 relating to strong activity comprising more than 70% of the cells)	0	1 (1 relating to weak activity comprising less than 70% of the cells)	2 (score 2 relating to strong activity comprising more than 70% of the cells)	0	2 (score 2 relating to strong activity comprising more than 70% of the cells)	2 (score 2 relating to strong activity comprising more than 70% of the cells)	0	2 (score 2 relating to strong activity comprising more than 70% of the cells)	2 (score 2 relating to strong activity comprising more than 70% of the cells)	0	Hoechst 33342 nuclear staining score ([5]; MRC5, conc 0.1 μm): 2 (score 2 relating to strong activity comprising more than 70% of the cells); Hoechst 33342 nuclear staining score ([5]; MRC5, conc 1 μm): 2 (score 2 relating to strong activity comprising more than 70% of the cells); Hoechst 33342 nuclear staining score ([5]; PBLs, conc 0.01 μm): 0; Hoechst 33342 nuclear staining score ([5]; PBLs, conc 0.1 μm): 0; Hoechst 33342 nuclear staining score ([5]; PBLs, conc 1 μm): 0
COc1ccc(C(=O)Cn2c(-c3nonc3N)nc3ccccc32)cc1 [Example 19]	0	0	100 to 1000 nM	100 to 1000 nM	10 to 100 nM	2	0	0	0	2 (score 2 relating to strong activity comprising more than 70% of the cells)	0	1 (1 relating to weak activity comprising less than 70% of the cells)	2 (score 2 relating to strong activity comprising more than 70% of the cells)	0	2 (score 2 relating to strong activity comprising more than 70% of the cells)	2 (score 2 relating to strong activity comprising more than 70% of the cells)	0	2 (score 2 relating to strong activity comprising more than 70% of the cells)	2 (score 2 relating to strong activity comprising more than 70% of the cells)	0	Hoechst 33342 nuclear staining score ([5]; MRC5, conc 0.1 μm): 0; Hoechst 33342 nuclear staining score ([5]; MRC5, conc 1 μm): 2 (score 2 relating to strong activity comprising more than 70% of the cells); Hoechst 33342 nuclear staining score ([5]; PBLs, conc 0.01 μm): 0; Hoechst 33342 nuclear staining score ([5]; PBLs, conc 0.1 μm): 0; Hoechst 33342 nuclear staining score ([5]; PBLs, conc 1 μm): 0
